Molecules are shown by their SMILES.

The test system of assay [1] is Phaeodactylum tricornutum. Nature of the assay: Growth of P. tricornutum incubated with the NO donor (cell counting). Format: cell-based. The following applies: 1 mM, 2-day incubation, 500 μL volume, 10×ESAW medium, FIG. 1. As for the experimental part:
FIGS. 1 to 4: Effect of increasing concentrations of SNAP on the production of TAG in Phaedocatylum tricornutum. The medium used was 10×ESAW; incubation was performed in 500 μl, inoculated at 1E+06 cells/ml, with immediate addition of chemicals. Measurements were performed after 2 days of incubation. Data of FIGS. 1 and 2 and 3 are the results of 3 biological replicates, FIG. 4 was a time course without replicates. NAP was used as a non-active analogue of SNAP. FIG. 1: Effect of increasing concentrations of SNAP on growth. Growth is measured in cell/mL. Phaeodactylum tricornutum (Ptl) Bohlin Strain 8.6 CCMP2561 (Culture Collection of Marine Phytoplankton, now known as NCMA: National Center for Marine Algae and Microbiota) was used in all experiments. Ptl was grown at 20° C. in 250 mL flask in artificial seawater (ESAW) medium (composition of the medium see table 1) using ten times enriched nitrogen and phosphate sources (5.49·10^−3 M NaNO3 and 2.24·10^−4 NaH3PO4) called “10×ESAW”, or nitrogen-depleted medium. Cells were grown on a 12:12 light (30 μE m^−2sec^−1)/dark cycle. Cells were sub-cultured twice a week by inoculating 1·10^6 cells/ml with fresh media. Growth was evaluated by cell counting using a Malassez counting chamber, or by the absorption at 750 nm using a plate reader. S-Nitroso-N-acetylpenicillamine (SNAP) is a compound that spontaneously releases NO, when dissolved.

Assay [2] has as its system Phaeodactylum tricornutum. Put plainly: TAG accumulation by Nile Red staining. Format: cell-based. The conditions noted are these: 1 mM, 2-day incubation, 500 μL volume, 10×ESAW medium. As for the experimental part: FIGS. 1 to 4: Effect of increasing concentrations of SNAP on the production of TAG in Phaedocatylum tricornutum. The medium used was 10×ESAW; incubation was performed in 500 μl, inoculated at 1E+06 cells/ml, with immediate addition of chemicals. Measurements were performed after 2 days of incubation. Data of FIGS. 1 and 2 and 3 are the results of 3 biological replicates, FIG. 4 was a time course without replicates. NAP was used as a non-active analogue of SNAP. FIG. 2: Effect of increasing concentrations of SNAP on TAG level per cell. TAG level per cell is given in relative fluorescence units/10^6 cells. FIG. 3: Effect of increasing concentrations of SNAP on TAG productivity. TAG productivity is given in relative fluorescence unit (Rfu) corresponding to the fluorescence of Nile Red per mL and per day. […] Growth was evaluated by cell counting using a Malassez counting chamber, or by the absorption at 750 nm using a plate reader. […] Accumulation of TAG droplets was monitored by Nile Red (Sigma Aldrich) fluorescent staining (Excitation wavelength at 485 nm; emission at 525 nm) following the principles previously described (Abida et al., 2015). In brief, cells were diluted and adjusted to a cell density that was linearly correlated with Nile Red fluorescence. […] Alternatively, Nile red fluorescence values were normalized to the cell concentration.

On to `CC(=O)N[C@H](C(=O)O)C(C)(C)SN=O` (racemic) [SNAP, S-Nitroso-N-acetylpenicillamine], for which, in assay [1], the cell growth entry is on record as “reduction of cell growth”. Moreover, the “increase of productivity (level of TAG per volume of culture and per day)” value in assay [2] (Nile Red Rfu per mL and per day, FIG. 3) is above 2 fold. Moreover, the “increase of TAG per cell” value in assay [2] (Nile Red fluorescence per 10^6 cells, FIG. 2) was determined as 2.2 fold.

Source of the values: patent US10975399B2, “Use of nitric oxide or nitric oxide donor for inducing the production of triacylglycerols in microalgae” (Commissariat A L'energie Atomique Et Aux Energies …, priority 2016, dated 2021).
